Results as given in US11260023B2, “Topical compositions containing rofecoxib and methods of making and using the same” (BRIORI BIOTECH, LLC, priority 2020, dated 2022).
Where “and” joins values, the source holds several entries; their conditions need not be identical. Equal values may be shown once.

Assay: Solubility of rofecoxib in solvent systems containing two or three solvents; synergistic or antagonist effect
Format: physicochemical
Method: The solubility of rofecoxib in solvent systems containing two or three solvents was determined. In solvent systems containing two solvents, […] of each solvent was added to 100 mg of rofecoxib. In solvent systems containing three solvents, […] of each solvent was added to 100 mg of rofecoxib. The samples were mixed using the protocol for solvent systems containing single solvents above. Serial dilutions of the rofecoxib solvent solutions were made (1:100 v:v), (1:1000 v/v), and (1:2000 v/v). Solvents without rofecoxib were diluted with methanol and used to blank a Beckman DU-7400 spectrophotometer. The absorbance of the samples was determined at a wavelength of 279.1 nm. The concentration of rofecoxib dissolved in the solvent was calculated using Beer's Law. The ability of the solvent systems to synergistically dissolve rofecoxib or antagonistically dissolve rofecoxib (reduce the ability of rofecoxib to dissolve was determined) according to the protocol below. The contribution for solubility of a single solvent in a two-mixture solution was calculated to be ½ of the calculated solubility of rofecoxib in one gram of excipient. Likewise, the contribution for solubility of a three-mixture was calculated to be ⅓ of the calculated solubility of rofecoxib in one gram of excipient. The expected solubility for a mixture is the addition of the contribution of each excipient. […] The percent change between the expected solubility and actual solubility was determined. […] Similar calculations are utilized for solvent systems containing three or more solvents.

## CS(=O)(=O)c1ccc(C2=C(c3ccccc3)C(=O)OC2)cc1 [Rofecoxib]
In DI + PGD
  % Change (observed vs expected solubility): 123.9%
  Expected Solubility: 23.04 mg/g
  Observed Solubility: 28.54 mg/g
In EA + AC
  % Change (observed vs expected solubility): 79.1%
  Expected Solubility: 14.52 mg/g
  Observed Solubility: 11.49 mg/g
In EA + AT
  % Change (observed vs expected solubility): 82.6%
  Expected Solubility: 2.91 mg/g
  Observed Solubility: 2.40 mg/g
In EA + BA
  % Change (observed vs expected solubility): 94.1%
  Expected Solubility: 12.52 mg/g
  Observed Solubility: 11.78 mg/g
In EA + DGME
  % Change (observed vs expected solubility): 55.4%
  Expected Solubility: 7.29 mg/g
  Observed Solubility: 4.04 mg/g
In EA + DI
  % Change (observed vs expected solubility): 62.0%
  Expected Solubility: 22.32 mg/g
  Observed Solubility: 13.84 mg/g
In EA + DIA
  % Change (observed vs expected solubility): 85.7%
  Expected Solubility: 3.77 mg/g
  Observed Solubility: 3.23 mg/g
In EA + DMSO
  % Change (observed vs expected solubility): 122.9%
  Expected Solubility: 74.55 mg/g
  Observed Solubility: 91.63 mg/g
In EA + DS
  % Change (observed vs expected solubility): 88.0%
  Expected Solubility: 3.67 mg/g
  Observed Solubility: 3.22 mg/g
In EA + IPTD
  % Change (observed vs expected solubility): 41.5%
  Expected Solubility: 2.75 mg/g
  Observed Solubility: 1.14 mg/g
In EA + M24D
  % Change (observed vs expected solubility): 110.4%
  Expected Solubility: 3.05 mg/g
  Observed Solubility: 3.36 mg/g
In EA + MP
  % Change (observed vs expected solubility): 75.3%
  Expected Solubility: 101.75 mg/g
  Observed Solubility: 76.59 mg/g
In EA + OA
  % Change (observed vs expected solubility): 38.5%
  Expected Solubility: 2.95 mg/g
  Observed Solubility: 1.14 mg/g
In EA + PC
  % Change (observed vs expected solubility): 103.9%
  Expected Solubility: 27.47 mg/g
  Observed Solubility: 28.53 mg/g
In EA + PEG
  % Change (observed vs expected solubility): 120.0%
  Expected Solubility: 9.32 mg/g
  Observed Solubility: 11.19 mg/g
In EA + PGD
  % Change (observed vs expected solubility): 109.1% and 100.3%
  Expected Solubility: 6.22 mg/g
  Observed Solubility: 6.78 mg/g and 6.23 mg/g
In EA + PPG
  % Change (observed vs expected solubility): 156.1%
  Expected Solubility: 2.90 mg/g
  Observed Solubility: 4.53 mg/g
In EA + PS20
  % Change (observed vs expected solubility): 107.9%
  Expected Solubility: 7.34 mg/g
  Observed Solubility: 7.92 mg/g
In EA + PS80
  % Change (observed vs expected solubility): 105.8%
  Expected Solubility: 7.61 mg/g
  Observed Solubility: 8.05 mg/g
In MP + EA
  % Change (observed vs expected solubility): 71.4%
  Expected Solubility: 107.75 mg/g
  Observed Solubility: 76.89 mg/g
In MP + PEG + PGD
  % Change (observed vs expected solubility): 35.17%
  Expected Solubility: 72.69 mg/g
In PC + AC
  Expected Solubility: 36.48 mg/g and 36.5 mg/g
In PC + AC + MP
  % Change (observed vs expected solubility): 34.18%
  Expected Solubility: 90.34 mg/g
In PC + AC + PEG
  % Change (observed vs expected solubility): 123.74%
  Expected Solubility: 28.72 mg/g
  Observed Solubility: 35.53 mg/g
In PC + AC + PGD
  % Change (observed vs expected solubility): 200.59% and 129.71% and 114.18%
  Expected Solubility: 26.65 mg/g
  Observed Solubility: 53.45 mg/g and 34.56 mg/g
In PC + BA
  % Change (observed vs expected solubility): 99.3%
  Expected Solubility: 34.49 mg/g
  Observed Solubility: 34.26 mg/g
In PC + BA + AC
  % Change (observed vs expected solubility): 134.75%
  Expected Solubility: 30.85 mg/g
  Observed Solubility: 41.57 mg/g
In PC + BA + DMSO
  % Change (observed vs expected solubility): 85.64%
  Expected Solubility: 70.86 mg/g
In PC + BA + MP
  % Change (observed vs expected solubility): 21.30%
  Expected Solubility: 88.99 mg/g
In PC + BA + PEG
  % Change (observed vs expected solubility): 63.48%
  Expected Solubility: 27.37 mg/g
In PC + BA + PGD
  % Change (observed vs expected solubility): 84.91%
  Expected Solubility: 25.30 mg/g
In PC + MP
  % Change (observed vs expected solubility): 69.3%
  Expected Solubility: 123.72 mg/g
  Observed Solubility: 85.76 mg/g
In PC + MP + PEG
  % Change (observed vs expected solubility): 46.39%
  Expected Solubility: 86.86 mg/g
In PC + MP + PGD
  % Change (observed vs expected solubility): 21.70%
  Expected Solubility: 84.79 mg/g
In PC + PEG + PGD
  % Change (observed vs expected solubility): 153.76%
  Expected Solubility: 23.17 mg/g
  Observed Solubility: 35.62 mg/g
In PC + PGD
  % Change (observed vs expected solubility): 123.0% and 97.8%
  Expected Solubility: 28.18 mg/g
  Observed Solubility: 34.66 mg/g and 27.55 mg/g
In PEG + DGME
  % Change (observed vs expected solubility): 119.7%
  Expected Solubility: 11.11 mg/g
  Observed Solubility: 13.30 mg/g
In PEG + EA
  % Change (observed vs expected solubility): 150.3%
  Expected Solubility: 9.32 mg/g
  Observed Solubility: 14.00 mg/g
In PEG + PGD
  % Change (observed vs expected solubility): 124.5% and 120.8%
  Expected Solubility: 10.04 mg/g
  Observed Solubility: 12.50 mg/g and 12.13 mg/g
